Molecules are shown by their SMILES. Where a name gives a salt, the structure may show the parent alone.

One assay deals with T1, thromboxane synthetase (Rattus norvegicus, UniProt P49430).
T1 construct: The platelets were isolated by centrifuging the PRP for 10 minutes at 1060xg; from tissue; host or cells: washed blood platelets from Okamoto-Aoki spontaneously hypertensive rats (SHR)
T1 sequence (P49430 1-533): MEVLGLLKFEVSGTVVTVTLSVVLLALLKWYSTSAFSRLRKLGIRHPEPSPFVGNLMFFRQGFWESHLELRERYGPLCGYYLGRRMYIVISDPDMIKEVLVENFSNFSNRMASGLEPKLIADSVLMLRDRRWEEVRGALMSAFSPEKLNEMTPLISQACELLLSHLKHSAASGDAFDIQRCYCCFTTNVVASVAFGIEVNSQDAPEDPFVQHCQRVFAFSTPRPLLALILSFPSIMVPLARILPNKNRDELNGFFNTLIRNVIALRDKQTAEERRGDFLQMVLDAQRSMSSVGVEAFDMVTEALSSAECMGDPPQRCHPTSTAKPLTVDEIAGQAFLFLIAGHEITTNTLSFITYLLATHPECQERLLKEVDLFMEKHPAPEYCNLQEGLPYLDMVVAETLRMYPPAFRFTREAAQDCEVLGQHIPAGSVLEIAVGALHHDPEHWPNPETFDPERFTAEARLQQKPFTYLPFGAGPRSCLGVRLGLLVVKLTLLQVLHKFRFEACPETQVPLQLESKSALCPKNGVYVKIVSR
Put plainly: Inhibition of thromboxane (TX) formation (TXB2 radioimmunoassay) in washed rat platelets. The class given is cell-based, Okamoto-Aoki spontaneously hypertensive rats (SHR). Conditions: percent inhibition of TXB2 formation; drug at 10^-4M; SHR platelet suspension, 10 minutes at 37 C. An excerpt:
The platelet rich plasma (PRP) was separated. […] The inhibition of thromboxane (TX) formation was studied by determing the concentration of thromboxane […] (TXB2), the stable hydrolysis product of TXA2.

Assay [1] has as its system spontaneously hypertensive rats of the Okamoto strain. Kind of assay: Hypotensive activity in spontaneously hypertensive rats (method of Chan and Poorvin). The class given is in vivo. The settings on record: male SHR, average MABP 160±1.5 mm of mercury; gavage, 100 mg/kg or less, second identical dose 24 hours later; MABP at 28 hours after the initial dose; number of rats in brackets. Here is the method: The novel compounds of the present invention are also active hypotensive agents and were tested for hypotensive activity by the method of P. S. Chan and b. Poorvin, Clinical and Experimental Hypertension, 1 (6), 817-830 (1979). Male, 16 week old, spontaneously hypertensive rats of the Okamoto strain, from Taconic Farms, Germantown, New York having an average mean arterial blood pressure of 160±1.5 mm of mercury were used in the test. […] A second identical dose of the test compound, without sodium chloride loading is given 24 hours later. At 28 hours after the initial dose, the mean arterial blood pressure (MABP) is measured by the method of Chan and Poorvin vide supra. The procedure is repeated in a second and third rat when necessary. The results of this test on representative compounds of the present invention appear in Table II below.

For the molecule `CC(Cn1ccnc1)Cn1nnc2ccc([N+](=O)[O-])cc2c1=O.O` (centres unmarked) [Example 87, 3-[3-(1H-Imidazol-1-yl)-2-methyl-propyl]-6-nitro-1,2,3-benzo-triazin-4(3H)-one, hydrate], testing at 100 µM on thromboxane synthetase gave an inhibition of 95%. The “MABP/mm Hg (no. of rats)” value in assay [1] is listed as 114(2) mm Hg.

For the molecule `O=c1c2cc(Cl)ccc2nnn1CCCCCn1ccnc1` [Example 99, 6-Chloro-3-[5-(1H-imidazol-1-yl)pentyl]-1,2,3-benzotriazin-4(3H)-one], the inhibition (commonly the drop in the measured response relative to a control, in per cent) at 100 µM on thromboxane synthetase came out at 82%. In assay [1], the “MABP/mm Hg (no. of rats)” value was 117(2) mm Hg.

For `O=c1c2cc(Cl)ccc2nnn1CCCCCCn1ccnc1` [Example 100, 6-Chloro-3-[6-(1H-imidazol-1-yl)hexyl]-1,2,3-benzotriazin-4(3H)-one], on thromboxane synthetase, the inhibition at 100 µM was determined as 73%. For the same molecule, the “MABP/mm Hg (no. of rats)” value in assay [1] is listed as 109(2) mm Hg.

On to `O=c1c2ccccc2nnn1CCCCCn1ccnc1` [Example 101, 3-[5-(1H-Imida-zol-1-yl)pentyl]-1,2,3-benzotria-zin-4(3H)-one, monohydrochloride], for which at 100 µM the inhibition against thromboxane synthetase was 67%. In assay [1], the “MABP/mm Hg (no. of rats)” value is 113(2) mm Hg.

With `O=c1c2ccccc2nnn1CCCCCCn1ccnc1` [Example 102, 3-[6-(1H-Imida-zol-1-yl)hexyl]-1,2,3-benzotria-zin-4(3H)-one, monohydrochloride], at thromboxane synthetase, the inhibition at 100 µM was 96%. Besides, the “MABP/mm Hg (no. of rats)” value in assay [1] is 87(2) mm Hg.

As for `O=c1c2ccccc2ncn1CCCn1ccnc1` [Example 122, 3-[3-(1 H-Imidazol-1-yl)propyl]-4(3H)-quinazolinone], the inhibition at 100 µM on thromboxane synthetase was 51%. Moreover, the “MABP/mm Hg (no. of rats)” value in assay [1] was 139(2) mm Hg.

For `O=c1c2ccccc2ncn1CCCCn1ccnc1` [Example 123, 3-[4-(1H-Imidazol-1-yl)butyl]-4(3H)-quinazolinone, dihydro-chloride], on thromboxane synthetase, the inhibition at 100 µM was 83%. In addition, the “MABP/mm Hg (no. of rats)” value in assay [1] is 117(3) mm Hg.

Molecule `O=c1c2cc(Cl)ccc2ncn1CCCCn1ccnc1` [Example 124, 6-Chloro-3-[4-(1H-imidazol-1-yl)-butyl]-4(3H)-quinazolinone, dihydro-chloride] registered an inhibition at 100 µM at thromboxane synthetase of 99%. In addition, the “MABP/mm Hg (no. of rats)” value in assay [1] is listed as 106(2) mm Hg.

Consider `O=c1c2cc(Br)ccc2ncn1CCCCn1ccnc1` [Example 125, 6-Bromo-3-[4-(1H-imidazol-1-yl)-butyl]-4(3H)-quinazolinone, dihydro-chloride], for which, at thromboxane synthetase, the inhibition at 100 µM is 99%. For the same molecule, in assay [1], the “MABP/mm Hg (no. of rats)” value is recorded as 121(2) mm Hg.

`O=c1c2cc(Br)ccc2ncn1CCCn1ccnc1` [Example 126, 6-Bromo-3-[3-(1H-imidazol-1-yl)-propyl]-4(3H)-quinazolinone]: the inhibition at 100 µM at thromboxane synthetase is 99%. The “MABP/mm Hg (no. of rats)” value in assay [1] is 122(2) mm Hg.

For the molecule `Cc1ccc2ncn(CCC(C)n3ccnc3)c(=O)c2c1` (centres unmarked) [Example 127, 3-[3-(1H-Imidazol-1-yl)butyl]-6-methyl-4(3H)-quinazolinone], at thromboxane synthetase, 100 µM produced 87% inhibition. In addition, the “MABP/mm Hg (no. of rats)” value in assay [1] is reported as 133(4) mm Hg.

On thromboxane synthetase, `CC(Cn1ccnc1)Cn1cnc2ccccc2c1=O.Cl.Cl` (centres unmarked) [Example 134, 3-[3-(1H-Imidazol-1-yl)-2-methylpropyl]-4(3H)-quinazolinone, dihydrochloride] registered an inhibition at 100 µM of 100%. Also, the “MABP/mm Hg (no. of rats)” value in assay [1] is 121(2) mm Hg.

Turning to `O=c1c2cc(Cl)ccc2ncn1CCCn1ccnc1` [Example 138, 6-Chloro-[3-(1H-imidazol-1-yl)propyl]-4(3H)-quinazolinone], the inhibition at 100 µM against thromboxane synthetase was 75%. The “MABP/mm Hg (no. of rats)” value in assay [1] is 100(2) mm Hg.

For `Cc1cn(CCCn2cnc3ccc(Cl)cc3c2=O)cn1` [Example 139, 6-Chloro-3-[3-(4-methyl-1H-imidazol-1-yl)propyl]-4(3H)-quinazolinone], the inhibition at 100 µM on thromboxane synthetase came to 89%. The “MABP/mm Hg (no. of rats)” value in assay [1] is given as 123(3) mm Hg.

Consider `CC(CCn1cnc2ccc(Cl)cc2c1=O)n1ccnc1` (centres unmarked) [Example 140, 6-Chloro-3-[3-(1H-Imidazol-1-yl)butyl]-4(3H)-quinazolinone], for which 100 µM produced 100% inhibition against thromboxane synthetase. For the same molecule, in assay [1], the “MABP/mm Hg (no. of rats)” value is recorded as 114(2) mm Hg.

At thromboxane synthetase, `O=c1c2cc(Cl)ccc2ncn1CCCCCCCCn1ccnc1` [Example 143, 6-Chloro-3-[8-(1H-imidazol-1-yl)octyl]-4(3H)-quinazolinone] displayed an inhibition at 100 µM of 70%. In addition, in assay [1], the “MABP/mm Hg (no. of rats)” value is on record as 118(2) mm Hg.

The values above are taken from EP0293500A1, “3-heteroalkyl-2,4.quinzaoline-diones” (AMERICAN CYANAMID COMPANY, priority 1987, dated 1988).
